Assays:
[1] = tested on: cultured cells and embryos; design: dose or concentration left out as unconfirmed; settings: 37° C.; cited from earlier work
[2] = tested on: Campylobacter fetus isolate [4914]; format: cell-based
[3] = tested on: Brucella abortus Strain 19; format: cell-based
Mycoplasma species = settings: without detrimentally affecting embryonic development in vitro; cited from earlier work
[4] = tested on: confluent buffalo rat liver cell monolayers; assay: Trypsin activity after dilution: detachment of confluent somatic cell monolayers; format: cell-based; settings: final concentrations 0.125% and […]
[5] = tested on: fresh semen of domestic bulls (Bos taurus) and gaur (Bos gaur) bulls; assay: Sperm survival after Percoll column with trypsin, fresh bull and gaur semen; format: cell-based; settings: 0.125% trypsin in 45% Percoll column
bovine sperm = assay: Sperm viability with trypsin in density gradient (later studies)

Molecule	sensitivity of isolate to antibiotic [2]	sensitivity of isolate to antibiotic [3]	also measured
NC[C@H]1O[C@H](O[C@H]2[C@H](O)[C@@H](O[C@H]3O[C@H](CO)[C@@H](O)[C@H](N)[C@H]3O)[C@H](N)C[C@@H]2N)[C@H](O)[C@@H](O)[C@@H]1O [kanamycin]	–	–	toxicity to cultured cells and embryos [1]: very little toxicity
CCC[C@@H]1C[C@@H](C(=O)N[C@@H]([C@H]2O[C@H](SC)[C@H](O)[C@@H](O)[C@H]2O)[C@@H](C)O)N(C)C1 [lincomycin]	sensitive	resistant	–
CN[C@@H]1[C@H](O)[C@H](NC)[C@H]2O[C@@]3(O)C(=O)C[C@@H](C)O[C@H]3O[C@@H]2[C@H]1O [spectinomycin]	intermediate	sensitive	–
CC[C@H]1OC(=O)C[C@@H](O)[C@H](C)[C@@H](O[C@@H]2O[C@H](C)[C@@H](O[C@H]3C[C@@](C)(O)[C@@H](O)[C@H](C)O3)[C@H](N(C)C)[C@H]2O)[C@@H](CC=O)C[C@@H](C)C(=O)/C=C/C(C)=C/[C@@H]1CO[C@@H]1O[C@H](C)[C@@H](O)[C@@H](OC)[C@H]1OC [tylosin]	intermediate	intermediate	minimal concentration for eliminating Mycoplasma species from bovine embryos (Mycoplasma species): 200 µg/mL
gentamicin	sensitive	sensitive	–
trypsin	–	–	enzymatic activity after dilution with Percoll, Isolate or egg yolk-based cryodiluents [4]: did not diminish enzymatic activity; effect on sperm motility, viability, acrosomal integrity [5]: no detrimental affects; effect of increasing trypsin concentration on sperm (bovine sperm): no detrimental effects
